Values of other authors as cited in patent publication US11318142B2, “Pharmaceutical formulation for use in the treatment of depressive and anxiety disorders” (priority 2018, dated 2022).

Settings: in vivo

| half-life [h] | SMILES |
| --- | --- |
| ~7 | COc1ccc(C(CN(C)C)C2(O)CCCCC2)cc1 (racemic) [venlafaxine, (RS)-1-[2-dimethylamino-1-(4-methoxyphenyl)-ethyl]cyclohexanol] |
| 6 to 11 | OCCN1CCN(CCCN2c3ccccc3C=Cc3ccccc32)CC1 [opipramol, 4-[3-(5H-dibenz[b,f]azepine-5-yl)propyl]-1-piperazinethanol] |
